From EP4603105A1, “PHARMACEUTICAL COMPOSITION CONTAINING CYCLIC COMPOUND HAVING SELECTIVE KRAS INHIBITORY EFFECT AGAINST HRAS AND NRAS” (CHUGAI SEIYAKU KABUSHIKI KAISHA, priority 2022, dated 2024)
Like-named read-outs stand apart in the source and are kept apart here. *1 amine or outer side, *2 acyl side, *3 side chain or, on linkers, in order; H or OH if unused. Where a SMILES comes first, the peptide text is derived from it. Bridges are numbered along the chain shown (N, C = ends). [ ]: non-standard residue; d: D form. The star is where a group is joined. hPhe(3-Cl-4-CF3) = N[C@@H](CCc1ccc(C(F)(F)F)c(Cl)c1)C(=O)O; NPrPhe(4-CF3) = CCCN[C@@H](Cc1ccc(C(F)(F)F)cc1)C(=O)O; X30 = CCN([C@H](C(=O)[*:2])C1CCCC1)[*:1]; NMeGly(cPent) = CN[C@H](C(=O)O)C1CCCC1; cisHyp = O=C(O)[C@@H]1C[C@H](O)CN1; NMeD = CN[C@@H](CC(=O)O)C(=O)O; NMeL = CN[C@@H](CC(C)C)C(=O)O; Morpholide = C1CN(*)CCO1; NMeA = CN[C@@H](C)C(=O)O; Ac5c = NC1(C(=O)O)CCCC1; Aze = O=C(O)[C@@H]1CCN1; Ac4c = NC1(C(=O)O)CCC1; Sar = CNCC(=O)O

Columns and labels:
HRAS wild-type protein = HRAS wild-type protein (Homo sapiens, UniProt P01112); assay: Binding to HRAS by surface plasmon resonance (SPR), KD and KD ratio to KRAS
Summary of the method: (§1)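 Running buffer contained 10 µM GDP and 10 mM MgCl2 to keep RAS in the GDP state, with 4% DMSO at pH 7.4. Compounds were flowed at 100 µL/min in 75 s steps of rising concentration over captured biotin-Avi RAS at 30°C. Sensorgrams were fitted 1:1 for KD.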

[1] = system: human lung cancer strain NCI-H441; type: cell-based
Summary of the method: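 Step one: dispense the test compound in serial DMSO dilutions. Step three: add the reagent and measure […].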

[2] = target: GDP-bound NRAS wild-type protein (Homo sapiens, UniProt P01111); assay: Binding to NRAS by surface plasmon resonance (SPR), KD and KD ratio to KRAS
Summary of the method: as §1

[3] = ratio of KD for HRAS wild-type protein to KD for KRAS
[4] = ratio of KD for GDP-bound NRAS wild-type protein to KD for KRAS
[5] = ratio of the KD value with respect to HRAS wild-type protein to the KD value with respect to KRAS
[6] = ratio of the KD value with respect to GDP-bound NRAS wild-type protein to the KD value with respect to KRAS
[7] = ratio of KD value for HRAS wild-type protein to KD value for KRAS (SPR)
[8] = ratio of KD value for GDP-bound NRAS wild-type protein to KD value for KRAS (SPR)

GDP-bound NRAS wild-type protein, sequence (P01111 whole entry): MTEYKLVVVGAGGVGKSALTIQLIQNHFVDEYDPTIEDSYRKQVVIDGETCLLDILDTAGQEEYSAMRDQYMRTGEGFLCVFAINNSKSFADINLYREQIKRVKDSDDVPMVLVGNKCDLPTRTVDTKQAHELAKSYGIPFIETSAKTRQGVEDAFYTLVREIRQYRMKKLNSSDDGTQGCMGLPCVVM
HRAS wild-type protein, sequence (P01112 whole entry): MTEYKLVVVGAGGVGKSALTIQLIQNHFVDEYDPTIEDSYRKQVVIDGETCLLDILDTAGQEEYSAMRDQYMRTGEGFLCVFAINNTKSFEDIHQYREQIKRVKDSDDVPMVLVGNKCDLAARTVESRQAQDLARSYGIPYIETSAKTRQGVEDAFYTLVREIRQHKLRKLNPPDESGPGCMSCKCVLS

SMILES	HRAS /KRAS (HRAS wild-type protein; [3])	IC50 [1] [nM]	NRAS /KRAS [2, 4]	HRAS /KRAS (HRAS wild-type protein; [5])	NRAS /KRAS [2, 6]	IC50 ([1]; NCI-H441 cells, 4 days, CellTiter-Glo, read-out: NCl-H441 IC50) [nM]	HRAS /KRAS (HRAS wild-type protein; [7])	NRAS /KRAS [2, 8]
CCC[C@H]1C(=O)N[C@@H]([C@@H](C)CC)C(=O)N(C)CC(=O)N(C)[C@H]2C/C=C\CCN(C2=O)[C@@H](Cc2ccc(C(F)(F)F)cc2)C(=O)N(C)CC(=O)N[C@@H](CCc2ccc3c(C)cn(C)c3c2)C(=O)N2C[C@H](OCC)C[C@H]2C(=O)NC2(CC(C)(C)C2)C(=O)N(C)[C@@H](C2CCCC2)C(=O)N(C)[C@H](C(=O)N(C)C)CC(=O)N1C [PP2897]	B (a compound having 3 or more and less than 10 is denoted as B)	10.5	A (a compound having 10 or more and less than 20 is denoted as A)	–	–	–	–	–
CCO[C@@H]1C[C@H]2C(=O)NC3(CCC3)C(=O)N(C)[C@@H](C3CCCC3)C(=O)N(C)[C@H](C(=O)N(C)CC)CC(=O)N(C)[C@@H](C(C)C)C(=O)N[C@@H]([C@@H](C)CC)C(=O)N(C)CC(=O)N(C)[C@H]3C/C=C\CCN(C3=O)[C@@H](Cc3ccc(C(F)(F)F)cc3)C(=O)N(C)CC(=O)N[C@@H](CCc3cc(F)c(C(F)(F)F)c(F)c3)C(=O)N2C1 [PP1990]	–	6.6	–	A (a compound having 10 or more and less than 20 is denoted as A)	A (a compound having 10 or more and less than 20 is denoted as A)	–	–	–
CC[C@H](C)[C@@H]1NC(=O)[C@H](CC(C)C)N(C)C(=O)C[C@@H](C(=O)N2CCOCC2)N(C)C(=O)[C@H](C2CCCC2)N(C)C(=O)C2(CCCC2)NC(=O)[C@@H]2CCCN2C(=O)[C@H](CCc2ccc(C(F)(F)F)c(Cl)c2)NC(=O)CN(C)C(=O)[C@H](Cc2ccc(OC(F)(F)F)cc2)N2CCCCC[C@@H](C2=O)N(C)C(=O)CN(C)C1=O [PP0615]	–	216	–	B (a compound having 3 or more and less than 10 is denoted as B)	B (a compound having 3 or more and less than 10 is denoted as B)	–	–	–
CCO[C@@H]1C[C@H]2C(=O)NC3(CCC3)C(=O)N(C)[C@@H](C3CCCC3)C(=O)N(C)[C@H](C(=O)N(C)C)CC(=O)N(C)[C@@H](CC3CCCC3)C(=O)N[C@@H]([C@@H](C)CC)C(=O)N(C)CC(=O)N(C)[C@H]3C/C=C\CCN(C3=O)[C@@H](Cc3ccc(C)cc3)C(=O)N(C)CC(=O)N[C@@H](CCc3cc(C)c(C(F)F)c(Cl)c3)C(=O)N2C1 [PP2677]	A (a compound having 10 or more and less than 20 is denoted as A)	70.6	A (a compound having 10 or more and less than 20 is denoted as A)	–	–	–	–	–
CCO[C@@H]1C[C@H]2C(=O)NC3(CC(C)(C)C3)C(=O)N(C)[C@@H](C3CCCC3)C(=O)N(C)[C@H](C(=O)N(C)C)CC(=O)N(C)[C@@H](CC(C)C)C(=O)N[C@@H]([C@@H](C)CC)C(=O)N(C)CC(=O)N(C)[C@H]3C/C=C\CCN(C3=O)[C@@H](Cc3ccc(OC)cc3)C(=O)N(C)CC(=O)N[C@@H](CCc3ccc(C(F)(F)F)c(OC)c3)C(=O)N2C1 [PP2693]	B (a compound having 3 or more and less than 10 is denoted as B)	–	A (a compound having 10 or more and less than 20 is denoted as A)	–	–	10.4	–	–
CCCN(C)C(=O)[C@@H]1CC(=O)N(C)[C@@H](CC(F)F)C(=O)N[C@@H]([C@@H](C)CC)C(=O)N(C)CC(=O)N(C)[C@H]2C/C=C\CCN(C2=O)[C@@H](Cc2ccc(C(F)(F)F)cc2)C(=O)N(C)CC(=O)N[C@@H](CCc2ccc(C(F)(F)F)c(OC)c2)C(=O)N2C[C@H](OCC)C[C@H]2C(=O)NC2(CCC2)C(=O)N(C)[C@@H](C2CCCC2)C(=O)N1C [PP2013]	–	7.7	–	B (a compound having 3 or more and less than 10 is denoted as B)	A (a compound having 10 or more and less than 20 is denoted as A)	–	–	–
CCO[C@@H]1C[C@H]2C(=O)NC3(CCC3)C(=O)N(C)[C@@H](C(CC)CC)C(=O)N(C)[C@H](CC)CC(=O)N(C)[C@@H](CC)C(=O)N[C@@H]([C@@H](C)CC)C(=O)N(C)CC(=O)N(C)[C@H]3C/C=C\CCN(C3=O)[C@@H](Cc3ccc(C(F)(F)F)cc3)C(=O)N(C)CC(=O)N[C@@H](CCc3cc(F)c(C(F)(F)F)c(F)c3)C(=O)N2C1 [PP1624]	–	55.8	–	–	–	–	A (a compound having 10 or more and less than 20 is denoted as A)	A (a compound having 10 or more and less than 20 is denoted as A)
CCCN1C(=O)CN(C)C(=O)CN(C)C(=O)[C@H]([C@@H](C)CC)NC(=O)[C@H](CC(C)C)N(C)C(=O)C[C@@H](C(=O)N2CCOCC2)N(C)C(=O)[C@H](C2CCCC2)N(CC)C(=O)C2(CCC2)NC(=O)[C@@H]2CCCN2C(=O)[C@H](CCc2ccc(C(F)(F)F)c(Cl)c2)NC(=O)CN(C)C(=O)[C@@H]1Cc1ccc(C(F)(F)F)cc1 [PP1952] ([NMeL]I[Sar][Sar][NPrPhe(4-CF3)][Sar][hPhe(3-Cl-4-CF3)]P[Ac4c][X30][NMeD]-Morpholide; lactam N-11)	–	14	–	B (a compound having 3 or more and less than 10 is denoted as B)	B (a compound having 3 or more and less than 10 is denoted as B)	–	–	–
CCCOC[C@H]1C(=O)N[C@@H]([C@@H](C)CC)C(=O)N(C)CC(=O)N(C)[C@H]2C/C=C\CCN(C2=O)[C@@H](Cc2ccc(C(F)(F)F)cc2)C(=O)N(C)CC(=O)N[C@@H](CCc2ccc(C(F)(F)F)c(OC)c2)C(=O)N2C[C@H](OCC)C[C@H]2C(=O)NC2(CC(C)(C)C2)C(=O)N(C)[C@@H](C2CCCC2)C(=O)N(C)[C@H](C(=O)N(C)C)CC(=O)N1C [PP1657]	–	2	–	–	–	–	B (a compound having 3 or more and less than 10 is denoted as B)	A (a compound having 10 or more and less than 20 is denoted as A)
C#CC[C@H]1C(=O)N[C@@H]([C@@H](C)CC)C(=O)N(C)CC(=O)N(C)[C@H]2C/C=C\CCN(C2=O)[C@@H](Cc2ccc(C(F)(F)F)cc2)C(=O)N(C)CC(=O)N[C@@H](CCc2cc(F)c(C(F)(F)F)c(F)c2)C(=O)N2C[C@H](F)C[C@H]2C(=O)NC2(CC(C)(C)C2)C(=O)N(C)[C@@H](C2CCCC2)C(=O)N(C)[C@H](C(=O)N(C)CCC)CC(=O)N1C [PP1692]	–	4.3	–	–	–	–	A (a compound having 10 or more and less than 20 is denoted as A)	AA (a compound having 20 or more is denoted as AA)
CC[C@H](C)[C@@H]1NC(=O)[C@@H]2CCC/C=C/c3ccc(cc3)C[C@@H](C(=O)N(C)CC(=O)N[C@@H](CCc3ccc(Cl)c(Cl)c3)C(=O)N3C[C@H](OC(C)C)C[C@H]3C(=O)NC3(CC(C)(C)C3)C(=O)N(C)[C@@H](C3CCCC3)C(=O)N(C)[C@H](C(=O)N3CCCC3)CC(=O)N2C)N2CC/C=C\C[C@@H](C2=O)N(C)C(=O)CN(C)C1=O [PP2596]	A (a compound having 10 or more and less than 20 is denoted as A)	13.7	A (a compound having 10 or more and less than 20 is denoted as A)	–	–	–	–	–
CCC[C@H]1C(=O)N[C@@H]([C@@H](C)CC)C(=O)N(C)CC(=O)N(C)[C@H]2C/C=C\CCN(C2=O)[C@@H](Cc2ccc(C(F)(F)F)cc2)C(=O)N(C)CC(=O)N[C@@H](CCc2ccc(C(F)(F)F)c(Cl)c2)C(=O)N2C[C@H](OCC)C[C@H]2C(=O)NC2(CC(C)(C)C2)C(=O)N(C)[C@@H](CC(F)(F)F)C(=O)N(C)[C@H](C(=O)N(C)C)CC(=O)N1C [PP2975]	A (a compound having 10 or more and less than 20 is denoted as A)	16.7	A (a compound having 10 or more and less than 20 is denoted as A)	–	–	–	–	–
CCCN1C(=O)[C@@H]2CCN2C(=O)[C@H](C)N(C)C(=O)[C@H]([C@@H](C)CC)NC(=O)[C@H](CC(C)C)N(C)C(=O)C[C@@H](C(=O)N2CCOCC2)N(C)C(=O)[C@H](C2CCCC2)N(C)C(=O)C2(CCCC2)NC(=O)[C@@H]2C[C@H](OCC)CN2C(=O)[C@H](CCc2ccc(C(F)(F)F)c(Cl)c2)NC(=O)CN(C)C(=O)[C@@H]1Cc1ccc(C(F)(F)F)cc1 [PP0242] ([NMeL]I[NMeA][Aze][NPrPhe(4-CF3)][Sar][hPhe(3-Cl-4-CF3)][cisHyp](Et)[Ac5c][NMeGly(cPent)][NMeD]-Morpholide; lactam N-11)	C (A compound having a KD ratio of 0.1 or more and less than 3 is denoted as C)	5	C (A compound having a KD ratio of 0.1 or more and less than 3 is denoted as C)	–	–	–	–	–
CCC[C@H]1C(=O)N[C@@H]([C@@H](C)CC)C(=O)N(C2CC2)CC(=O)N(C)[C@H]2C/C=C\CCN(C2=O)[C@@H](Cc2ccc(C)cc2)C(=O)N(C)CC(=O)N[C@@H](CCc2cc(F)c(C(F)(F)F)c(F)c2)C(=O)N2C[C@H](OCC)C[C@H]2C(=O)N(C)C2(CCC2)C(=O)N(C)[C@@H](C2CCCC2)C(=O)N(C)[C@H](C(=O)N2CCCCC2)CC(=O)N1C [PP3111]	A (a compound having 10 or more and less than 20 is denoted as A)	17.8	A (a compound having 10 or more and less than 20 is denoted as A)	–	–	–	–	–
CCC[C@H]1C(=O)N[C@@H]([C@@H](C)CC)C(=O)N(C)CC(=O)N(C)[C@H]2C/C=C\CCN(C2=O)[C@@H](Cc2ccc(C(F)(F)F)cc2)C(=O)N(C)CC(=O)N[C@@H](CCc2cc(F)c(C(F)(F)F)c(F)c2)C(=O)N2C[C@H](OCC)C[C@H]2C(=O)NC2(CC(C)(C)C2)C(=O)N(C)[C@@H](CC2CC2)C(=O)N(C)[C@H](C(=O)N(C)C)CC(=O)N1C [PP2807]	A (a compound having 10 or more and less than 20 is denoted as A)	28	AA (a compound having 20 or more is denoted as AA)	–	–	–	–	–
